# “And” between values parts separate entries of the source, which are not always exact repeats. Identical values can stand only once.
# How the values were obtained:
# Assay type in all cases: cell-based
# Pseudomonas aeruginosa = test: Survival of organisms in inoculated urine with preservative components, 24 hours at room temperature; settings: for Concentration with cidal activity against Pseudomonas aeruginosa / Concentration inhibitory against Pseudomonas aeruginosa (ineffective up to = >): component alone
# Method: (§1) Antimicrobial activity for each active ingredient in the Chemistat I formulations was first determined for representative organisms listed in Table I. A culture for each organism of interest on blood agar was incubated at 36° C. overnight. About two to three colonies of the organism were transferred via sterile swab from the blood agar culture into a 5 ml Mueller-Hinton broth culture tube, which was then incubated on a rotator for about two to three hours at 36° C. Using a spectrophotometer set at a wavelength of 630 nm, the turbidity of broth culture was adjusted by the addition of Mueller-Hinton broth to an optical density equivalent to approximately 1×10^8 colony forming units (cfu)/ml to form an inoculum solution. An aliquot of the inoculum solution was plated onto blood agar to determine the actual control organism count. For each component listed in Table II, the component was added to filter-sterilized pooled normal urine at the concentration given in Table II to form a test sample. The test sample was then inoculated with an aliquot of the inoculum solution providing a final organism count of approximately 1×10^6 cfu/ml of test sample. Immediately after thorough mixing, an aliquot of the test sample was removed and serially diluted in PBS, and serial dilutions were plated onto blood agar to determine the Time Zero organism count. The inoculated plates were incubated at 36° C., and organism counts were recorded after 18-24 hours. After incubating the test sample for 24 hours at room temperature, an aliquot of the test sample was again removed, serially diluted in PBS and plated onto blood agar. After incubating for 18-24 hours at 36° C., organism counts were obtained. The organism count obtained after 24 hours incubation at room temperature was divided by the control organism count to provide the survival value of each organism as recorded in Table II. With respect to changes in microbial count, a survival value of 1 represents no change; a survival value of 0.1 indicates a 1-log decrease; a survival value of 10 indicates a 1-log increase; and a survival value of 0.000 represents a decrease of greater than or equal to 3-logs. In comparison, the lower the survival value, the greater the component's capacity for controlling organism growth.
# Klebsiella pneumoniae = test: as above
# Method: as §1
# Proteus vulgaris = test: as above
# Method: as §1
# Escherichia coli = test: as above; set-up: key to Survival value esco: 24 h count / control count; 1 = no change, 0.1 = 1-log decrease
# Method: as §1
# Enterococcus faecalis = test: as above; set-up: key to Survival value enfa: 24 h count / control count; 1 = no change, 0.1 = 1-log decrease; settings: for Concentration with cidal activity against Enterococcus faecalis / Concentration inhibitory against Enterococcus faecalis (ineffective up to = >): component alone
# Method: as §1
# [1] = tested on: microorganisms of interest; test: Antimicrobial (cidal) activity against the organisms of interest taken together; settings: component alone
# Method: as §1, with “With respect to changes in microbial count, a survival value of 1 represents no change; a survival value of 0.1 indicates a 1-log decrease; a survival value of 10 indicates a 1-log increase; and a survival value of 0.000 represents a decrease of greater than or equal to 3-logs. In comparison, the lower the survival value, the greater the component's capacity for controlling organism growth.” left out
# Enterobacter aerogenes = test: Survival of organisms in inoculated urine with preservative components, 24 hours at room temperature; set-up: key to Survival value enae: 24 h count / control count; 1 = no change, 0.1 = 1-log decrease; settings: for Concentration with cidal activity against Enterobacter aerogenes / Concentration inhibitory against Enterobacter aerogenes (ineffective up to = >): component alone
# Method: as §1
# Candida albicans = test: as above; set-up: key to Survival value caal: 24 h count / control count; 1 = no change, 0.1 = 1-log decrease; settings: for Concentration with cidal activity against Candida albicans / Concentration inhibitory against Candida albicans (ineffective up to = >): component alone
# Method: as §1
# [2] = single component at 0.005 mg/ml
# [3] = single component at 0.0075 mg/ml
compound,measurement,setting,value
"OCCc1ccccc1 [2-Phenyl ethanol, 2-phenyl ethanol]",Concentration with cidal activity against Pseudomonas aeruginosa,Pseudomonas aeruginosa,5 μl/ml
same,Survival value psae,Pseudomonas aeruginosa; single component at 1 μl/ml,4.819
same,Survival value psae,Pseudomonas aeruginosa; single component at 1.8 μl/ml,tntc
same,Survival value psae,Pseudomonas aeruginosa; single component at 2.5 μl/ml,0.199
same,Survival value psae,Pseudomonas aeruginosa; single component at 4 μl/ml,0.019
same,Survival value psae,Pseudomonas aeruginosa; single component at 5 μl/ml,0.000
same,Survival value psae,Pseudomonas aeruginosa; single component at 10 μl/ml,0.000
same,Survival value klpn,Klebsiella pneumoniae; single component at 1.8 μl/ml,tntc
same,Survival value prvu,Proteus vulgaris; single component at 1.8 μl/ml,tntc
same,Concentration with cidal activity against Escherichia coli,Escherichia coli; component alone,4 μl/ml
same,Survival value esco,Escherichia coli; single component at 1 μl/ml,tntc
same,Survival value esco,Escherichia coli; single component at 1.8 μl/ml,tntc
same,Survival value esco,Escherichia coli; single component at 2.5 μl/ml,0.245
same,Survival value esco,Escherichia coli; single component at 4 μl/ml,0.000
same,Survival value esco,Escherichia coli; single component at 10 μl/ml,0.000
same,Concentration with cidal activity against Enterococcus faecalis,Enterococcus faecalis,> 10 μl/ml
same,Survival value enfa,Enterococcus faecalis; single component at 1 μl/ml,tntc
same,Survival value enfa,Enterococcus faecalis; single component at 1.8 μl/ml,tntc
same,Survival value enfa,Enterococcus faecalis; single component at 2.5 μl/ml,tntc
same,Survival value enfa,Enterococcus faecalis; single component at 4 μl/ml,tntc
same,Survival value enfa,Enterococcus faecalis; single component at 5 μl/ml,tntc
same,Survival value enfa,Enterococcus faecalis; single component at 10 μl/ml,1.495
same,Concentration required for cidal action,[1],greater than 2.5 μl/ml
same,Concentration with cidal activity against Enterobacter aerogenes,Enterobacter aerogenes,10 μl/ml
same,Survival value enae,Enterobacter aerogenes; single component at 1 μl/ml,tntc
same,Survival value enae,Enterobacter aerogenes; single component at 2.5 μl/ml,0.092
same,Survival value enae,Enterobacter aerogenes; single component at 4 μl/ml,0.244
same,Survival value enae,Enterobacter aerogenes; single component at 5 μl/ml,0.440
same,Survival value enae,Enterobacter aerogenes; single component at 10 μl/ml,0.000
same,Concentration with cidal activity against Candida albicans,Candida albicans,10 μl/ml
same,Survival value caal,Candida albicans; single component at 1.8 μl/ml,tntc
same,Survival value caal,Candida albicans; single component at 4 μl/ml,1.081
same,Survival value caal,Candida albicans; single component at 10 μl/ml,0.000
"OB(O)O [Boric Acid, boric acid, reference compound]","Antimicrobial action against Pseudomonas aeruginosa, in words",Pseudomonas aeruginosa; concentrations as in label,ineffective
same,Survival value psae,Pseudomonas aeruginosa; single component at 5 mg/ml,1.157
same,"Antimicrobial action against Escherichia coli, in words",Escherichia coli; concentrations as in label,ineffective
same,Survival value esco,Escherichia coli; single component at 5 mg/ml,0.770
same,"Antimicrobial action against Enterococcus faecalis, in words",Enterococcus faecalis; concentrations as in label,ineffective
same,Survival value enfa,Enterococcus faecalis; single component at 5 mg/ml,2.647
same,"Antimicrobial action against Enterobacter aerogenes, in words",Enterobacter aerogenes; concentrations as in label,ineffective
same,Survival value enae,Enterobacter aerogenes; single component at 5 mg/ml,1.061
"[H]/N=C(\N/C(=N/[H])NCCCCCCNC(=N)NC(=N)Nc1ccc(Cl)cc1)Nc1ccc(Cl)cc1 [Chlorhexidine, chlorhexidine, reference compound]",Concentration with cidal activity against Pseudomonas aeruginosa,Pseudomonas aeruginosa,> 0.05 mg/mL
same,Survival value psae,Pseudomonas aeruginosa; [2],tntc
same,Survival value psae,Pseudomonas aeruginosa; [3],4.049
same,Survival value psae,Pseudomonas aeruginosa; single component at 0.01 mg/ml,0.277
same,Survival value psae,Pseudomonas aeruginosa; single component at 0.05 mg/ml,0.046
same,Concentration with cidal activity against Klebsiella pneumoniae,Klebsiella pneumoniae; component alone,0.02 mg/mL
same,Survival value klpn,Klebsiella pneumoniae; single component at 0.02 mg/ml,0.000
same,Concentration with cidal activity against Proteus vulgaris,Proteus vulgaris; component alone,0.02 mg/mL
same,Survival value prvu,Proteus vulgaris; single component at 0.02 mg/ml,0.000
same,Concentration with cidal activity against Escherichia coli,Escherichia coli; component alone,0.0075 mg/mL
same,Survival value esco,Escherichia coli; [2],0.003
same,Survival value esco,Escherichia coli; [3],0.000
same,Survival value esco,Escherichia coli; single component at 0.01 mg/ml,0.000
same,Survival value esco,Escherichia coli; single component at 0.02 mg/ml,0.000
same,Survival value esco,Escherichia coli; single component at 0.05 mg/ml,0.000
same,Survival value esco,Escherichia coli; single component at 0.1 mg/ml,0.000
same,Survival value esco,Escherichia coli; single component at 0.8 mg/ml,0.000
same,Concentration with cidal activity against Enterococcus faecalis,Enterococcus faecalis,0.05 to 0.8 mg/mL
same,Survival value enfa,Enterococcus faecalis; [2],1.115
same,Survival value enfa,Enterococcus faecalis; [3],0.598
same,Survival value enfa,Enterococcus faecalis; single component at 0.01 mg/ml,0.520
same,Survival value enfa,Enterococcus faecalis; single component at 0.02 mg/ml,0.179 and 0.141
same,Survival value enfa,Enterococcus faecalis; single component at 0.05 mg/ml,0.000
same,Survival value enfa,Enterococcus faecalis; single component at 0.1 mg/ml,0.561
same,Survival value enfa,Enterococcus faecalis; single component at 0.8 mg/ml,0.000
same,Concentration required for cidal action,[1],greater than or equal to 0.01 mg/ml
same,Concentration with cidal activity against Enterobacter aerogenes,Enterobacter aerogenes,0.01 mg/mL
same,Survival value enae,Enterobacter aerogenes; [2],tntc
same,Survival value enae,Enterobacter aerogenes; [3],6.098
same,Survival value enae,Enterobacter aerogenes; single component at 0.01 mg/ml,0.000
same,Survival value enae,Enterobacter aerogenes; single component at 0.05 mg/ml,0.000
same,Concentration with cidal activity against Candida albicans,Candida albicans,0.0075 mg/mL
same,Survival value caal,Candida albicans; [2],5.308
same,Survival value caal,Candida albicans; [3],0.000
same,Survival value caal,Candida albicans; single component at 0.02 mg/ml,0.000
same,Survival value caal,Candida albicans; single component at 0.05 mg/ml,0.000
same,Survival value caal,Candida albicans; single component at 0.1 mg/ml,0.000
same,Survival value caal,Candida albicans; single component at 0.8 mg/ml,0.000
"CCOC(=O)c1ccc(O)cc1 [Ethyl parahydroxybenzoate, ethyl parahydroxybenzoate]",Concentration inhibitory against Pseudomonas aeruginosa (ineffective up to = >),Pseudomonas aeruginosa,> 1 mg/mL
same,Survival value psae,Pseudomonas aeruginosa; single component at 0.5 mg/ml,tntc
same,Survival value psae,Pseudomonas aeruginosa; single component at 1 mg/ml,tntc
same,Concentration inhibitory against Klebsiella pneumoniae (ineffective up to = >),Klebsiella pneumoniae; component alone,> 1 mg/mL
same,Survival value klpn,Klebsiella pneumoniae; single component at 0.5 mg/ml,tntc
same,Concentration inhibitory against Proteus vulgaris (ineffective up to = >),Proteus vulgaris; component alone,> 1 mg/mL
same,Survival value prvu,Proteus vulgaris; single component at 0.5 mg/ml,tntc
same,Concentration with cidal activity against Escherichia coli,Escherichia coli; component alone,1 mg/mL
same,Survival value esco,Escherichia coli; single component at 0.5 mg/ml,tntc
same,Survival value esco,Escherichia coli; single component at 1 mg/ml,0.000
same,Concentration inhibitory against Enterococcus faecalis (ineffective up to = >),Enterococcus faecalis,> 1 mg/mL
same,Survival value enfa,Enterococcus faecalis; single component at 0.5 mg/ml,tntc
same,Survival value enfa,Enterococcus faecalis; single component at 1 mg/ml,tntc
same,Concentration inhibitory against Enterobacter aerogenes (ineffective up to = >),Enterobacter aerogenes,1 mg/mL
same,Survival value enae,Enterobacter aerogenes; single component at 1 mg/ml,0.208
same,Concentration inhibitory against Candida albicans (ineffective up to = >),Candida albicans,0.5 mg/mL
same,Survival value caal,Candida albicans; single component at 0.5 mg/ml,0.362
"CCC(=O)[O-].[Na+] [Sodium propionate, sodium propionate]",Concentration inhibitory against Pseudomonas aeruginosa (ineffective up to = >),Pseudomonas aeruginosa,10 mg/mL
same,Survival value psae,Pseudomonas aeruginosa; single component at 5 mg/ml,tntc
same,Survival value psae,Pseudomonas aeruginosa; single component at 10 mg/ml,0.341
same,Concentration inhibitory against Klebsiella pneumoniae (ineffective up to = >),Klebsiella pneumoniae; component alone,> 10 mg/mL
same,Survival value klpn,Klebsiella pneumoniae; single component at 5 mg/ml,tntc
same,Concentration inhibitory against Proteus vulgaris (ineffective up to = >),Proteus vulgaris; component alone,> 10 mg/mL
same,Survival value prvu,Proteus vulgaris; single component at 5 mg/ml,tntc
same,Concentration inhibitory against Escherichia coli (ineffective up to = >),Escherichia coli; component alone,> 10 mg/mL
same,Survival value esco,Escherichia coli; single component at 5 mg/ml,tntc
same,Survival value esco,Escherichia coli; single component at 10 mg/ml,tntc
same,Concentration inhibitory against Enterococcus faecalis (ineffective up to = >),Enterococcus faecalis,10 mg/mL
same,Survival value enfa,Enterococcus faecalis; single component at 5 mg/ml,tntc
same,Survival value enfa,Enterococcus faecalis; single component at 10 mg/ml,2.702
same,Concentration inhibitory against Enterobacter aerogenes (ineffective up to = >),Enterobacter aerogenes,> 10 mg/mL
same,Concentration inhibitory against Candida albicans (ineffective up to = >),Candida albicans,> 10 mg/mL
same,Survival value caal,Candida albicans; single component at 5 mg/ml,tntc

# Source: patent US6946297B2, “System for stabilizing samples” (priority 1999, dated 2005)
